The structures appear in SMILES notation.

From ChEMBL document CHEMBL1158419, “3D-QSAR study of 8-azabicyclo[3.2.1] octane analogs antagonists of cholinergic receptor” (Bioorg Med Chem Lett, 2009) come the findings set out here.

The nature of the assay: Antagonist activity at muscarinic receptor. It is filed as functional.
Compound `CN1[C@@H]2C[C@@H](OC(=O)[C@H](CO)c3ccccc3)C[C@H]1[C@@H]1O[C@@H]12` [SCOPOLAMINE] came in with a pKi of 8.95.

With `C[N+]1(C)[C@@H]2C[C@@H](OC(=O)C(C(=O)OC3CCCCC3)c3ccccc3)C[C@H]1[C@@H]1O[C@@H]12` (some centres not stated), the pKi came to 8.01.

Compound `C[N+]1(C)C2CCC1CC(OC(=O)C(CC(=O)O[C@H]1C[C@H]3CC[C@@H](C1)[N+]3(C)C)c1ccccc1)C2` (some centres not stated) had a pKi of 7.18.

Regarding `CCOC(=O)C(C(=O)O[C@@H]1C[C@@H]2[C@H]3O[C@H]3[C@H](C1)[N+]2(C)C)(c1ccccc1)C1CCCC1` (some centres not stated), the pKi is reported as 7.98.

Regarding `COC(=O)C(C(=O)O[C@@H]1C[C@@H]2[C@H]3O[C@H]3[C@H](C1)[N+]2(C)C)(c1ccccc1)C1CCCC1` (some centres not stated), the pKi was found to be 7.28.

`C=CCN1C2CC[C@@H]1C[C@H](OC(c1ccc(F)cc1)c1ccc(F)cc1)C2` (single isomer, unassigned) yielded a pKi of 2.25.

Turning to `C[S+]([O-])COC(=O)C(O[C@@H]1CC2CC[C@H](C1)[N+]2(C)C)c1ccccc1` (single isomer, unassigned), the pKi was found to be 7.25.

Turning to `COC(=O)[C@H]1[C@@H](OC(=O)c2ccccc2)C[C@@H]2CC[C@H]1N2C` [COCAINE], the pKi was 4.79.

Turning to `CCCCN1C2CC[C@@H]1C[C@H](OC(c1ccc(F)cc1)c1ccc(F)cc1)C2` (single isomer, unassigned), the pKi stood at 2.6.

`CN1C2CC[C@@H]1C[C@H](OC(c1ccc(F)cc1)c1ccc(F)cc1)C2` (single isomer, unassigned) had a pKi of 1.06.

Turning to `CN1[C@@H]2CC[C@H]1C[C@@H](OC(c1ccccc1)c1ccccc1)C2` [BENZTROPINE], the pKi amounted to 0.33.

In the case of `Fc1ccc(C(O[C@@H]2CC3CC[C@H](C2)N3Cc2ccccc2)c2ccc(F)cc2)cc1` (single isomer, unassigned), the pKi is on record as 3.01.

With `CN1[C@@H]2CC[C@H]1C[C@@H](OC(=O)C(CO)c1ccccc1)C2` (some centres not stated) [ATROPINE], the pKi turned out to be 9.34.

The compound `CCCCCCOC(=O)C(C(=O)O[C@@H]1C[C@@H]2[C@H]3O[C@H]3[C@H](C1)[N+]2(C)C)c1ccccc1` (some centres not stated) displayed a pKi of 7.33.

As for `CN1[C@@H]2C[C@@H](OC(=O)C(c3ccccc3)C3CCCC3)C[C@H]1[C@@H]1O[C@@H]12` (some centres not stated), the negative-log Ki (pKi) came to 7.14.

`CCOC(=O)C(C(=O)O[C@@H]1CC2[C@H]3O[C@H]3[C@H](C1)[N+]2(C)C)c1ccccc1` (single isomer, unassigned) displayed a pKi of 8.32.

Consider `C[N+]1(C)[C@@H]2CC[C@H]1C[C@@H](OC(=O)CCC(C(=O)O[C@@H]1C[C@H]3CC[C@@H](C1)[N+]3(C)C)c1ccccc1)C2` (some centres not stated), for which the pKi is reported as 6.5.

One may read the pKi as the negative decadic logarithm of the Ki, by convention in mol/L. Read a low pKi as a large Ki.
